Data on one compound can be found in patent US20250368611A1, “METHOD FOR PREPARING BERAPROST 314-D SODIUM” (YS Life Science Co., Ltd., priority 2024, published 2025).

Series [1] concerns IL-6. The series is described as follows: CD19 CAR T-cell / Raji co-culture: IL-6 in supernatant by multiplex Luminex. Format: cell-based, human. The text has this:
(§1) The impact of CTO1681 on the efficacy of CD19-targeting CAR T-cells in vitro as well as its ability to reduce CRS-inducing pro-inflammatory cytokine levels in the presence of CAR T-cells and tumor cells in vitro were explored. […] CD3 T cells were sorted from one healthy donor PBMCs, stimulated for a short period of time and transduced with CD19 CAR-T lentivirus (LV) containing CD28 and CD3ζ domains. CD19 CAR T-cells were expanded for 6 days and used in the assay. CD19-targeting CD3 T-cells were treated with 5 increasing concentrations of CTO1681 (0.36 nM, 1.8 nM, 9 nM, 45 nM, and 225 nM) or vehicle for 30 minutes, prior to, and during co-culture with CD19+ Raji lymphoma target cells. Media alone, vehicle, and positive control (dexamethasone) wells were included. Following initial treatment, CAR T-cells (Effectors) were co-cultured with fluorescently labeled CD19+ Raji tumor cells (Target cells) at 3 different Effector:Target cell ratios (10:1, 5:1 and 1:1) and treated with 5 different concentrations of CTO1681 or vehicle for 24 hours. Target cells (Raji cells) were fluorescently labelled with CPD (eBioscience™ Cell Proliferation Dye eFluor™) prior to co-culture to distinguish the Raji cells from the effector cells and allow for analysis of target viability by flow cytometry. Following incubation, supernatant was collected and levels of pro-inflammatory cytokines IL-6 and TNF-α were measured by multiplex Luminex assay and […] was measured via time-resolved fluorescence resonance energy transfer (TR-FRET) assay. These cytokines were selected for quantification as they are early cytokines released following CAR T-cell infusion in vivo that causes hyperactivation of the immune system resulting in acute systemic inflammation, CRS, multiorgan failure, and possible death. In addition, flow cytometry was used to measure the level of Raji tumor/target cell death following CAR T treatment across CTO1681 conditions to measure impact of CTO1681 with CAR T-cell efficacy. Co-cultures were stained with viability dye 7-AAD for measuring viability.

Series [2] concerns TNF-α. The series is described as follows: CD19 CAR T-cell / Raji co-culture: TNF-α in supernatant by multiplex Luminex. Type of series: cell-based, human.
Text: as §1

Series [3] relates to IFN-γ. In words: CD19 CAR T-cell / Raji co-culture: IFN-γ in supernatant by TR-FRET. Format: cell-based, human.
Text: as §1
On the technique in general: TR-FRET usually uses a lanthanide donor and a delayed reading to cut background.

For series [4], the system named is CD19+ Raji lymphoma target cells. In words: CD19 CAR T-cell killing of Raji target cells, flow cytometry (7-AAD). As to conditions: all concentrations 0.36-225 nM; 24 hours co-culture. Format: cell-based, human. The source says: The impact of CTO1681 on the efficacy of CD19-targeting CAR T-cells in vitro as well as its ability to reduce CRS-inducing pro-inflammatory cytokine levels in the presence of CAR T-cells and tumor cells in vitro were explored. […] CD3 T cells were sorted from one healthy donor PBMCs, stimulated for a short period of time and transduced with CD19 CAR-T lentivirus (LV) containing CD28 and CD3ζ domains. CD19 CAR T-cells were expanded for 6 days and used in the assay. CD19-targeting CD3 T-cells were treated with 5 increasing concentrations of CTO1681 (0.36 nM, 1.8 nM, 9 nM, 45 nM, and 225 nM) or vehicle for 30 minutes, prior to, and during co-culture with CD19+ Raji lymphoma target cells. Media alone, vehicle, and positive control (dexamethasone) wells were included. […] Following incubation, supernatant was collected and levels of pro-inflammatory cytokines IL-6 and TNF-α were measured by multiplex Luminex assay and […] was measured via time-resolved fluorescence resonance energy transfer (TR-FRET) assay. These cytokines were selected for quantification as they are early cytokines released following CAR T-cell infusion in vivo that causes hyperactivation of the immune system resulting in acute systemic inflammation, CRS, multiorgan failure, and possible death. […]
Background: Flow cytometry measures light scatter and fluorescence of single cells or particles in a stream.

In series [5] the test system is Raji-luc tumor cells. The series is described as follows: CAR T-cell efficacy in NSG mice bearing Raji-luc tumors (IVIS imaging). Type of series: in vivo. The following applies: 0.3, 0.2 or 0.15 mg/kg/d BID for 14 days; Day 15. The protocol:
The effects if any, of CTO1681 on CAR T-cell activity in vivo were measured. Human T-cells expressing CD19-CD28-CD3Z CAR construct was used in this experiment. 6-7 week old NSG™ (NOD SCID gamma) mice were engrafted with 1×10^6 luciferase (luc) expressing Raji tumor cells (herein referred to as “Raji-luc” tumor cells) each on Day 1 to allow for tumor growth over a 7-day period prior to the commencement of the treatment. CAR T-cell infusion was performed intravenously via lateral tail vein on (5×10^6 CD19 CAR T-cells generated from healthy donors). NSG mice are severely immunodeficient, which facilitates ready tumor engraftment and subsequent clearance due to CAR T-cells can be measured. Tumor growth after engraftment and subsequent clearance were monitored once weekly (starting on Day 7) using IVIS imaging to detect luciferase signal in living mice. CTO1681 administration began on Day 8, two days before CAR T-cell infusion, with injections twice a day for 14 days. Mice received total daily CTO1681 doses of 0.3 mg/kg/d, 0.2 mg/kg/d, or 0.15 mg/kg/d via two injections (BID). CTO1681 doses were selected based on the pharmacokinetic profile of the drug in mice. […] Mice were monitored for body temperature and health evaluations (weight, movement, posture, fur condition, etc.) throughout the entire study.

Series [6] can be described thus: Health evaluations in NSG tumor-bearing mice. Type of series: in vivo. As to conditions: 0.3, 0.2 or 0.15 mg/kg/d BID for 14 days with CAR T-cells. As for the experimental part: Tumor growth after engraftment and subsequent clearance were monitored once weekly (starting on Day 7) using IVIS imaging to detect luciferase signal in living mice. CTO1681 administration began on Day 8, two days before CAR T-cell infusion, with injections twice a day for 14 days. Mice received total daily CTO1681 doses of 0.3 mg/kg/d, 0.2 mg/kg/d, or 0.15 mg/kg/d via two injections (BID). CTO1681 doses were selected based on the pharmacokinetic profile of the drug in mice. Control groups included mice receiving Raji-luc tumor cells without CAR T-cell treatment, mice receiving Raji-luc tumor cells and a CAR T-cell infusion, and mice receiving Raji-luc tumor cells with vehicle treatments. Mice were monitored for body temperature and health evaluations (weight, movement, posture, fur condition, etc.) throughout the entire study.

The mark [7] stands for this setting: 10:1 ratio of Effectors to Target cells, 0.36-225 nM, 24 hours.
The mark [8] stands for this setting: CAR T-cells:Raji cells 10:1, 0.36-225 nM.
The mark [9] stands for this setting: across three ratios of CAR-T cells to Raji cells (10:1, 5:1, 1:1).

Entries after “also recorded” stand apart in the source; their conditions may differ.

In the case of `CC#CC[C@H](C)[C@H](O)/C=C/[C@@H]1[C@H]2c3cccc(CCCC(=O)[O-])c3O[C@H]2C[C@H]1O.[Na+]` [CTO1681, sodium 4-((1R,2R,3aS,8bS)-2-hydroxy-1-((3S,4S,E)-3-hydroxy-4-methyloct-1-en-6-yn-1-yl)-2,3,3a,8b-tetrahydro-1H-cyclopenta[b]benzofuran-5-yl)butanoate], the “Maximum reduction IL-6” value in series [1] (setting [7]) is given as ~23%. Further, the “Effect on IL-6 levels” value in series [1] (setting [8]) is “dose-dependently reduced; also recorded: dose-dependently lowers”. Besides, the “IL-6 with increasing concentrations” value in series [1] (setting [9]) was “reduction”. In series [2] (setting [7]), the “Maximum reduction TNF-α” value is on record as “approximately 50%”. The “Effect on TNF-α levels” value in series [2] (setting [8]) was “dose-dependently reduced; also recorded: dose-dependently lowers”. The “TNF-α with increasing concentrations” value in series [2] (setting [9]) is given as “reduction”. The IFN-γ is on record as ~26% in series [3] (setting [7]) and “reduction” in series [3] (setting [9]). In addition, the “Effect on IFN-γ levels” value in series [3] (setting [8]) was “dose-dependently reduced; also recorded: dose-dependently lowers”. Also, the “Effect on tumor/target cell killing by CD19-directed CAR T-cells” value in series [4] is “did not impact or interfere; also recorded: absence of an effect”. Further, in series [5], the “Effect on CD19 CAR T-cell activity (reduction of tumor burden, luciferase signal)” value is listed as “did not affect; also recorded: does not interfere”. Moreover, the “Clinical morbidities, including weight loss or limb movement” value in series [6] is recorded as “did not cause any increase”.
